Test results from patent US20100029683A1, “Methods for regulating cell mitosis by inhibiting serine/threonine phosphateses” (priority 2008, published 2010).

How the values were obtained:
NB xenografts = experiment: Histologic examination of xenografts 24 hours after a single i.p. injection; assay type: in vivo, SCID mice; details: 24 hours after single i.p. injection
U373 cells [1] = experiment: Western blots of pAkt-1, p53 and MDM2 in U373 cells after 24 hours; assay type: cell-based, human; details: U373, 2 nM
Protocol: (§1) 5×10^6 U87MG cells were inoculated s.c. into each flank of 20 SCID mice. When the xenografts were 0.5±0.1 cm (day 0), 5 animals each received i.p. vehicle alone days 1-12 (50% DMSO/H2O); compound 102 alone at 1.5 mg/kg days 1-3,5-7, & 9-11; TMZ alone at 80 mg/kg days 4, 8, 12; or both drugs at the same doses and schedules. If xenografts reached 1800 mm^3, animals were sacrificed. […] B, Survival curve combining the data from the study shown in FIG. 12A, with a second identical study involving a total of 10 animals with two xenografts each. Disease-free survival was defined as no recurrence of either xenografts. […] As in 12A, except that xenografts of SH-SY5Y cells were implanted in one flank only and animals were treated with one additional cycle of drugs, i.e., compound 102 on days 13-15, TMZ, on day 16, and compound 102 plus TMZ on the same schedules. […] E, Western blots of U87 cells in culture 24 hours after exposure to compound 102 at 2.5 uM, TMZ at 25 uM or DOX at 2 uM, and compound 102 plus TMZ or DOX. F, Western blots of U373 cells 24 hours after exposure to compound 102 at 2.5 uM, doxorubicin at 2 uM, and both drugs. G, Western blots of U373 cells 24 hours after exposure to TMZ at 25 uM, okadaic acid at 2 nM, and both drugs.

U87MG = experiment: Western blots of pAkt, p53 and MDM2 in U87MG cells after 24 hours; assay type: cell-based, human; details: compound 102 2.5 uM, TMZ 25 uM, DOX 2 uM
Protocol: as §1
The effects of compound 102, TMZ, doxorubicin (DOX), a widely used anti-cancer drug that disrupts DNA replication, compound 102 plus TMZ, and compound 102 plus DOX on the amount of pAkt, p53 and MDM2 in U87MG, a cell line with wild-type p53, and in U373, a cell line with mutant p53 (Short et al, 2007) were assessed by Western blots.

U373 = experiment: Inhibition of U373 glioblastoma cells after 7 days in culture, alone and in combination; assay type: cell-based, human; details: Compound 100 2.5 μM, cisplatin 0.1 μM, doxorubicin 0.01 μM, taxol 0.3 nM, each alone
Protocol: Cells were exposed to vehicle alone (control); Compound 100 at 2.5 uM; cisplatin at 0.1 uM; doxorubicin at 0.01 uM; or taxol at 0.3 nM alone or to the combination of Compound 100 plus each of the standard agents at the same concentrations. […] The expected percent inhibition at 7 days is the product of the inhibition by each agent alone.
Cells were exposed to vehicle alone (control); compound 100 at 2.5 μM, cisplatin at 0.1 μM; doxorubicin at 0.01 μM; or taxol at 0.3 nM alone or to the combination of compound 100 plus each of the standard agents at the same concentrations. […] The expected percent inhibition from a combination of drugs is calculated by multiplying the actual percent inhibition by each drug alone and comparing that product to the actual percent inhibition caused by the combination of the two drugs (Valeriote, 1975). The expected percent inhibition at 7 days is the product of the inhibition by each agent alone.

U373 cells [2] = experiment: Cell cycle distribution of U373 cells by FACS after 48 hours; assay type: cell-based, human; details: U373, 48 hours
Protocol: (§2) Cells in unsynchronized logarithmic growth were exposed to vehicle or drug and adherent cells and cells in the media were collected. Harvested cells were fixed with 70% cold ethanol for 20 min at −20 degrees, washed with PBS, and stained with 10 ug/ml of PI and 1 ug/ml RNAse in TBS for 30 minutes and analyzed by FACS. A, Flow cytometry profiles of U87 cells after exposures to DMSO only, compound 102 only, 5 uM; TMZ only, 25 uM; compound 102 with TMZ combination, doxorubicin only, 2.0 uM and compound 102 with doxorubicin combination. B, Flow cytometry profiles of U373 cells.
(§3) We analyzed cell cycle patterns of U87MG and U373 cells 48 hours after exposure to TMZ or DOX alone and in combination with compound 102.

[3] = Solubility character of lead compounds; assay type: physicochemical
U87MG xenografts = experiment: U87MG s.c. xenografts in SCID mice, compound 102 with TMZ; assay type: in vivo
Protocol: as §1
To determine the impact of altering DNA-damage defense mechanisms by inhibiting PP2A on the efficacy of cytotoxic chemotherapy, the effects of compound 102 combined with TMZ, a non-specific DNA-methylating drug, routinely used for the palliative treatment of GBM patients (Prados et al, 2008), were studied. SCID mice bearing s.c. xenografts of either the GBM line U87MG or the neuroblastoma line SH-SY5Y were treated with vehicle alone, compound 102 alone, TMZ alone, or both drugs at the same doses and schedules as when given alone.

SH-SY5Y xenografts = experiment: SH-SY5Y neuroblastoma s.c. xenografts in SCID mice, compound 102 with TMZ; assay type: in vivo; details: as U87MG study plus one additional cycle of drugs; followed 7 weeks
Protocol: 5×10^6 U87MG cells were inoculated s.c. into each flank of 20 SCID mice. When the xenografts were 0.5±0.1 cm (day 0), 5 animals each received i.p. vehicle alone days 1-12 (50% DMSO/H2O); compound 102 alone at 1.5 mg/kg days 1-3,5-7, & 9-11; TMZ alone at 80 mg/kg days 4, 8, 12; or both drugs at the same doses and schedules. If xenografts reached 1800 mm^3, animals were sacrificed. […] B, Survival curve combining the data from the study shown in FIG. 12A, with a second identical study involving a total of 10 animals with two xenografts each. Disease-free survival was defined as no recurrence of either xenografts. […] As in 12A, except that xenografts of SH-SY5Y cells were implanted in one flank only and animals were treated with one additional cycle of drugs, i.e., compound 102 on days 13-15, TMZ, on day 16, and compound 102 plus TMZ on the same schedules. […] E, Western blots of U87 cells in culture 24 hours after exposure to compound 102 at 2.5 uM, TMZ at 25 uM or DOX at 2 uM, and compound 102 plus TMZ or DOX. F, Western blots of U373 cells 24 hours after exposure to compound 102 at 2.5 uM, doxorubicin at 2 uM, and both drugs. G, Western blots of U373 cells 24 hours after exposure to TMZ at 25 uM, okadaic acid at 2 nM, and both drugs. […]

U87MG cells [4] = experiment: Cellular and molecular changes in U87MG cells (immunofluorescence, Western blots); assay type: cell-based, human; details: 2.5 uM
Protocol: FIG. 11A-G: Cellular and molecular changes in U87 cells induced by compound 102 at 2.5 uM after 24 hour exposure (A-D, F, G) and after 3 hours ([…]).
A, Nuclear changes in U87 cells in unsynchronized logarithmic growth (upper panel, green immunofluorescence [IFS] GFP labeled-actin α and lower panel, blue DAPI staining). Numerous irregular nuclei with clumped chromatin in compound 102 treated cells are indicated by arrows. B, Disordered microtubules (green IFS tubulin-α and red IFS pPlk-1-Tre 210) and irregular clumped chromatin (blue DAPI) C, Western blots of U87 lysates: pAkt-1, total Akt-1, and β-actin. D, Western blots of U87 lysates: TCTP, pPlk (Tre-210), total Plk, and β-actin. E, IFS of TCTP in U87 cells, F, Western blots p53 (ser-15), pMDM2 (ser-166), and β-actin and G, IFS of p53 (ser-15).
TCTP is an abundant, highly conserved, multifunctional protein that binds to and stabilizes microtubules before and after mitosis and also exerts potent anti-apoptotic activity (Bommer and Thiele, 2004; Yarm, 2002; Susini et al, 2008) (FIG. 11E).

U87MG cells [5] = experiment: Cell cycle distribution of U87MG cells by FACS after 48 hours; assay type: cell-based, human
Protocol: as §2, §3

U87 cells [6] = experiment: U87 cell growth in vitro, viable cell count; assay type: cell-based, human; details: U87 cells (FIG. 6), read-out: IC50, inhibition of GBM cell growth
Protocol: FIG. 6: Effect of compound 102 on U87 cells in vitro at 1 uM; 2 uM; 5 uM; and 10 uM.
Viable cells were counted (mean and s.d.; n=3; Coulter particle counter).

U87 cells [7] = experiment: Immunofluorescence staining of p53; assay type: cell-based, human; details: 24 hour exposure, compound 102 2.5 uM, TMZ 25 uM
PP1 = PP1 (Homo sapiens, UniProt P62136); experiment: Inhibition of purified PP1 (Ser/Thr Phosphatase Assay Kit 1); assay type: biochemical
Source text: (§4) Inhibition of PP2A and PP1 activity by compound 102 on purified PP1 and PP2A (mean and s.d.; n=3) (Ser/Thr Phosphatase Assay Kit 1, Millipore, Billerica, Mass.)

PP2A [8] = experiment: PP2A activity in U87 s.c. xenografts and normal brain of SCID mice after i.p. injection; assay type: in vivo; details: single dose 1.5 mg/kg i.p.
Protocol: PP2A activity in U87 s.c. xenografts (blue) and in normal brain tissue (yellow) of SCID mice at different times after i.p. injection of 1.5 mg/kg compound 102 (one mouse per point; each lysate was measured in triplicate: mean and s.d.)

PP2A [9] = biological target: PP2A (Homo sapiens, UniProt P67775); experiment: Inhibition of purified PP2A (Ser/Thr Phosphatase Assay Kit 1); assay type: biochemical
Source text: as §4

[10] = test system: DAOY medulloblastoma cells; experiment: DAOY medulloblastoma s.c. xenografts in SCID mice; assay type: in vivo; details: treatment from day 6, measured to day 23
Protocol: DAOY medulloblastoma cells were implanted subcutaneously into the flanks of SCID mice. On day 6, mice were divided into 3 groups, one group receiving Compound 100, one group receiving Compound 102, and one group receiving vehicle alone. The subcutaneous tumor masses were measured on day 6, day 13, day 18, and on day 23 when all animals were sacrificed. […] In this model DAOY cells, when untreated, reached their maximum growth about 2 weeks after implantation with slow regression thereafterwards.

PP1, sequence (P62136 whole entry): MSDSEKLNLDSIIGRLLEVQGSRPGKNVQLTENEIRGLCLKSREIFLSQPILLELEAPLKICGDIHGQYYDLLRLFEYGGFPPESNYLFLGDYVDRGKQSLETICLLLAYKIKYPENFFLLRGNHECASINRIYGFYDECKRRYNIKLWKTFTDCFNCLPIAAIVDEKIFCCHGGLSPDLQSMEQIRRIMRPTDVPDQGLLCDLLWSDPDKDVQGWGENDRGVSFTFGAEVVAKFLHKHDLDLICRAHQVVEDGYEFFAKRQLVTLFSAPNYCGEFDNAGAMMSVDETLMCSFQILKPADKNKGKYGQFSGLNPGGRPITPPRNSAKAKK
PP2A (Homo sapiens, UniProt P67775), sequence (P67775 whole entry): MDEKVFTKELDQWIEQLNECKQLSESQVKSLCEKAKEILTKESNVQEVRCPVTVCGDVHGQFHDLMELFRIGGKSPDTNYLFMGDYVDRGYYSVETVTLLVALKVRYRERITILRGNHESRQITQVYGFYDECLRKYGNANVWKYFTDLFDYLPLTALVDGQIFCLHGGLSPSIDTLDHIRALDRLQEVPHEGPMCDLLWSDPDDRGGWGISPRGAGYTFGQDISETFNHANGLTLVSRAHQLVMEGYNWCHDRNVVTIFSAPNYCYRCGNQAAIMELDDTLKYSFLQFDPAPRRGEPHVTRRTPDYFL

Cn1nnc2c(C(N)=O)ncn2c1=O [TMZ, temozolomide, reference compound]
cells with cytoplasmic swelling and vacuolization (NB xenografts): ~50%

C=C1[C@@H](O)[C@@H]2O[C@]3(CC[C@H](/C=C/[C@@H](C)[C@@H]4CC(C)=C[C@@]5(O[C@H](C[C@@](C)(O)C(=O)O)CC[C@H]5O)O4)O3)CC[C@H]2O[C@@H]1[C@@H](O)C[C@H](C)[C@H]1O[C@@]2(CCCCO2)CC[C@H]1C [Okadaic acid, okadaic acid]
effects on pAkt-1 and mutant p53 (U373 cells [1]): mimicked the effects of compound 102 on pAkt-1 and on mutant p53

COc1cccc2c1C(=O)c1c(O)c3c(c(O)c1C2=O)C[C@@](O)(C(=O)CO)C[C@@H]3O[C@H]1C[C@H](N)[C@H](O)[C@H](C)O1 [DOX, doxorubicin]
MDM2 on Western blot (U87MG): little effect on MDM2
p53 on Western blot (U87MG): increased p53
pAkt-1 on Western blot (U87MG): decreased pAkt-1
inhibition at 7 days, agent alone (U373): 75.7%
G1 phase cells (U373 cells [2]): reduced G1 and G2/M
G2/M phase cells (U373 cells [2]): reduced G1 and G2/M
S phase cells (U373 cells [2]): greatly increased S

CC(C)(C)OC(=O)N1CCN(C(=O)C2C(C(=O)O)[C@H]3CC[C@@H]2O3)CC1 (stereo partly shown) [Compound 102]
solubility character [3]: lipid soluble
time of sacrifice (xenografts reached 1800 mm^3) (U87MG xenografts; U87 xenografts, for the combination only the 3 mice with recurrence): 4-5 week
growth of GBM (U87MG) xenografts (U87MG xenografts; compound 102 1.5 mg/kg i.p. days 1-3, 5-7, 9-11, TMZ 80 mg/kg days 4, 8, 12): minimally delayed growth
GBM xenografts: animals with complete regression without recurrence (U87MG xenografts; compound 102 combined with temozolomide, greater than 28 weeks): 50%
cells with decreased cell size / small pyknotic nuclei (NB xenografts): ~50%
growth of NB (SH-SY5Y) xenografts (SH-SY5Y xenografts): completely suppressed growth for 2 weeks
MDM2 on Western blot (U87MG): increased both pAkt-1 and MDM2
p53 on Western blot (U87MG): eliminated p53
pAkt-1 on Western blot (U87MG): increased both pAkt-1 and MDM2
p53 abundance (U87MG cells [4]): decreased the abundance of p53
phosphorylated MDM2 (U87MG cells [4]): increased phosphorylated MDM2
TCTP abundance (U87MG cells [4]; 24 hour exposure): marked decrease in translationally controlled tumor protein
microtubule and mitotic morphology (mitotic catastrophe) (U87MG cells [4]; 24 hour exposure): appearance of disordered microtubules and abnormal mitotic figures
phosphorylated Akt-1 (U87MG cells [4]; 24 hour exposure): increased phosphorylated Akt-1
phosphorylated Plk-1 (U87MG cells [4]; 24 hour exposure): increased phosphorylated Plk-1
G1 phase cells (U87MG cells [5]): decreased G1
G2/M phase cells (U87MG cells [5]): prominently increased G2/M
S phase cells (U87MG cells [5]): modestly increased S
IC50 (U87 cells [6]): ~4 µM
intracellular levels of p53 by immunofluorescence (U87 cells [7]): reduction of intracellular levels of p53
IC50 (PP1): ~80 µM
PP2A activity in normal brain tissue (PP2A [8]): inhibits PP2A activity
PP2A activity in s.c. xenografts of U87 MG (PP2A [8]): inhibits PP2A activity
IC50 (PP2A [9]): ~0.4 µM
DAOY s.c. tumor mass [10]: marked regression of the tumor by day 23
cell cycle profile (U373 cells [2]): no effect on this profile

CC(=O)O[C@H]1C(=O)[C@@]2(C)[C@H]([C@H](OC(=O)c3ccccc3)[C@]3(O)C[C@H](OC(=O)[C@H](O)[C@@H](NC(=O)c4ccccc4)c4ccccc4)C(C)=C1C3(C)C)[C@]1(OC(C)=O)CO[C@@H]1C[C@@H]2O [Taxol]
inhibition at 7 days, agent alone (U373): 114%

N.N.[Cl][Pt][Cl] [cisplatin]
inhibition at 7 days, agent alone (U373): 93.5%
